Test results from ChEMBL document CHEMBL6127107, “Oleanolic acid derivatives against drug-resistant bacteria and fungi by multi-targets to avoid drug resistance” (Eur J Med Chem, 2024).
Values after ≈ are worked out from the molar mass of the structure shown. Active and inactive are the calls of the source. The rule behind the calls is not given here.

Experiments:
Pseudomonas aeruginosa = experiment: Antimicrobial activity against Pseudomonas aeruginosa; format: functional
Staphylococcus aureus [1] = experiment: Antibacterial activity against methicillin-resistant Staphylococcus aureus infected in cyclophosphamide-injected Kunming mouse model of skin wound infection assessed as wound repair by measuring reduction in wound area at 2 to 4 mg/kg measured for 7 days by photographic analysis; format: functional, organism-based; conditions: dose 2-4 mg/kg, time 7.0 day
Staphylococcus aureus [2] = experiment: Synergistic antibacterial activity against methicillin-resistant Staphylococcus aureus assessed as fractional inhibitory concentration index in presence of azithromycin; format: functional
Staphylococcus aureus [3] = experiment: Antimicrobial activity against Staphylococcus aureus 10; format: functional
Mitochondrial membrane = experiment: Induction of mitochondrial membrane depolarization in methicillin-resistant Staphylococcus aureus assessed as increase in fluorescence intensity at 1 to 8 times of MIC by DiSC3(5) staining based analysis; format: cell membranes
Staphylococcus aureus [4] = experiment: Antimicrobial activity against Staphylococcus aureus 31; format: functional
HEK-293T = experiment: Cytotoxicity against HEK293T cells at 64 microg/ml by MTT assay; format: toxicity, cell-based; conditions: human, dose 64 µg/ml
DNA = experiment: Binding affinity to methicillin-resistant Staphylococcus aureus DNA minor groove assessed as decrease in fluorescence by DAPI staining based analysis; format: nucleic-acid assay
Staphylococcus aureus [5] = experiment: Antibacterial activity against methicillin-resistant Staphylococcus aureus infected in cyclophosphamide-injected Kunming mouse model of skin wound infection assessed as increase in IL-10 level in skin at 1 to 4 mg/kg administered for 7 days and measured on day 8; format: functional, organism-based; conditions: dose 1-4 mg/kg, time 8.0 day
Staphylococcus aureus [6] = experiment: Synergistic antibacterial activity against methicillin-resistant Staphylococcus aureus assessed as fractional inhibitory concentration index in presence of LCN antibiotic; format: functional, organism-based
Staphylococcus aureus [7] = experiment: Synergistic antibacterial activity against methicillin-resistant Staphylococcus aureus assessed as fractional inhibitory concentration index in presence of enrofloxacin; format: functional, organism-based
Cell membrane = experiment: Disruption of cell membrane integrity in methicillin-resistant Staphylococcus aureus assessed as cell rupture at 2 to 4 times of MIC by scanning electron microscopic analysis; format: subcellular
Staphylococcus aureus [8] = experiment: Selectivity ratio of MBEC for methicillin-resistant Staphylococcus aureus to MIC for methicillin resistant Staphylococcus aureus; format: functional

SMILES: CC(=O)O[C@H]1CC[C@]2(C)[C@H]3CC=C4[C@@H]5CC(C)(C)CC[C@]5(C(=O)NCCCNC(=N)N)CC[C@@]4(C)[C@]3(C)CC[C@H]2C1(C)C
- MIC (Pseudomonas aeruginosa): > 64 µg/mL
- Activity (Staphylococcus aureus [1]): Active
- fractional inhibitory concentration index (FICI) (Staphylococcus aureus [2]): 0.188
- MIC (Staphylococcus aureus [3]): 1 µg/mL (≈ 1.68 µM)
- Activity (Mitochondrial membrane): Dose-Dependent Effect
- MIC (Staphylococcus aureus [4]): 1 µg/mL (≈ 1.68 µM)
- Activity (HEK-293T): Non-Toxic
- Activity (DNA): inactive
- Activity (Staphylococcus aureus [5]): Active
- Activity (Staphylococcus aureus [6]): Active
- Activity (Staphylococcus aureus [7]): Active
- Activity (Cell membrane): Active
- selectivity ratio (Staphylococcus aureus [8]): 16
